Columns and labels:
[1] = target: CYP2D6 (P450 Isozyme 2D6) (Homo sapiens, UniProt P10635); experiment: Bufuralol hydroxylase activity in human microsome preparations; settings: human
[2] = target: CYP2C9 (P450 Isozyme 2C9) (Homo sapiens, UniProt P11712); experiment: Tolbutamide hydroxylase activity in human microsome preparations; settings: microsomes
[3] = target: CYP2C19 (P450 Isozyme 2C19) (Homo sapiens, UniProt P33261); experiment: Mephenytoin hydroxylase activity in human microsome preparations; settings: human, human microsome preparations, probe mephenytoin
CYP2B (P450 Isozyme 2B) = experiment: Lauric acid 11-hydroxylase activity in human microsome preparations; settings: human, human microsome preparations, probe lauric acid
P450 Isozyme 2D6 = P450 Isozyme 2D6 (Homo sapiens, UniProt P10635); experiment: Bufuralol hydroxylase activity in human microsome preparations; settings: test substance at 100 μM, human microsomes
P450 Isozyme 2C19 = P450 Isozyme 2C19 (Homo sapiens, UniProt P33261); experiment: Mephenytoin hydroxylase activity in human microsome preparations; settings: test substance at 100 μM, human microsomes
P450 Isozyme 2B = experiment: Lauric acid 11-hydroxylase activity in human microsome preparations; settings: test substance at 100 μM, human microsomes
mouse liver = experiment: Toxicity in the mouse liver; type: in vivo; settings: compared with racemic methylphenidate
From the text: The invention is thus of particular utility in that proportion of the population in which the relevant enzymes have reduced efficiency, or that are receiving the cross-reacting drugs, e.g SSRIs, in therapy of, say, anxiety or depression.

rats = settings: 10 mg/kg, given 10 minutes following methylphenidate, within 15 to 25 minutes; cited from earlier work

P450 Isozyme 2D6, sequence (P10635 whole entry): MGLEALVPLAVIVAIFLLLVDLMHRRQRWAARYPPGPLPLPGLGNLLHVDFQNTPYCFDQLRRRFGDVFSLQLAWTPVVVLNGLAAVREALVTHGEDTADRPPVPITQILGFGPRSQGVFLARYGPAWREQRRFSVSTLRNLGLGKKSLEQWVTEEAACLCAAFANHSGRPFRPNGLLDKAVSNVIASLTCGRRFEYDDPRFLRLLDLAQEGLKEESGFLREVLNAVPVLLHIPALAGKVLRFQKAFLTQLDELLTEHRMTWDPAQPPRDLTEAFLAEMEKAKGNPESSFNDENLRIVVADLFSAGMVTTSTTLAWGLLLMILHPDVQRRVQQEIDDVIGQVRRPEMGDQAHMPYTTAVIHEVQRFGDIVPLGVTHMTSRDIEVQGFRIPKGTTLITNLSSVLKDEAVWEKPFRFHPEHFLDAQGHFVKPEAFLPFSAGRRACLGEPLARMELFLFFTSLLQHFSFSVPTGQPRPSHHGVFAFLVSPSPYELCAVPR
CYP2D6 (P450 Isozyme 2D6), sequence (P10635 whole entry): as above
P450 Isozyme 2C19, sequence (P33261 whole entry): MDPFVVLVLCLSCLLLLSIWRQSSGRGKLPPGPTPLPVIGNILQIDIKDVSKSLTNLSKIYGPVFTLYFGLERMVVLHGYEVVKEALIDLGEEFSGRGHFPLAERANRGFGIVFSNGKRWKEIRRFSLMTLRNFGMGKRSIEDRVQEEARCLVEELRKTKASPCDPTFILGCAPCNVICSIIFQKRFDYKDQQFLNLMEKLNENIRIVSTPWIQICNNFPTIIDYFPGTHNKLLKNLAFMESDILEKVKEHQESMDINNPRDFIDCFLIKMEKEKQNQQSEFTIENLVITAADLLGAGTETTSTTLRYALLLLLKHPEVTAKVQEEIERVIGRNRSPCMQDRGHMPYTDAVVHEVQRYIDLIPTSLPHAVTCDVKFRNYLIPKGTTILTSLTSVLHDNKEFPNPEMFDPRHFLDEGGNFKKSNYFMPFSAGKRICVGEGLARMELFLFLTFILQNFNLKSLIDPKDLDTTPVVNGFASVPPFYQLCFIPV
CYP2C9 (P450 Isozyme 2C9), sequence (P11712 whole entry): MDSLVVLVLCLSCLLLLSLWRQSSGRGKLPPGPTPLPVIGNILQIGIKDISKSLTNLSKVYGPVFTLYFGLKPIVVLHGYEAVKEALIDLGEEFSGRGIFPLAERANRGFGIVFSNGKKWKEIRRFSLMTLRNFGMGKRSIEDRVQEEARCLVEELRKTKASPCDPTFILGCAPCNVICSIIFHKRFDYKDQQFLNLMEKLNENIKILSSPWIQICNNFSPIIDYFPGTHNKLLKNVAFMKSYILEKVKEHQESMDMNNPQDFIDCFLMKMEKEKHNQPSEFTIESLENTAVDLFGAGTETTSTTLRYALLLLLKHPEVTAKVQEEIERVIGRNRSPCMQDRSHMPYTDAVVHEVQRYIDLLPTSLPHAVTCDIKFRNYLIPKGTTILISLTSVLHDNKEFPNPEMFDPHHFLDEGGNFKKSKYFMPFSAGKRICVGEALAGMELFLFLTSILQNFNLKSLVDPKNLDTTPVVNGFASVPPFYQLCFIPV
CYP2C19 (P450 Isozyme 2C19), sequence (P33261 whole entry): as the sequence (P33261 whole entry) above

## COC(=O)C(c1ccccc1)C1CCCCN1 (racemic) [Racemic Methylphenidate, methylphenidate]
[1]; microsomes
  inhibition at 100 µM: 65%
[2]
  inhibition at 100 µM: 19%
[3]
  inhibition at 100 µM: 44%
CYP2B (P450 Isozyme 2B)
  inhibition at 100 µM: < 15%

## C=C[C@H]1C[N@@]2CC[C@H]1C[C@@H]2[C@@H](O)c1ccnc2ccc(OC)cc12 [Quinidine]
[1]; human microsome preparations, probe bufuralol
  inhibition at 10 µM: > 90%

## COC(=O)[C@@H](c1ccccc1)[C@@H]1CCCCN1 [ltmp]
P450 Isozyme 2D6
  % Inhibition of Enzyme Activity (Bufuralol hydroxylase, 2D6): 41%
P450 Isozyme 2C19
  % Inhibition of Enzyme Activity (Mephenytoin hydroxylase, 2C19): 33%
P450 Isozyme 2B
  % Inhibition of Enzyme Activity (Lauric acid 11-hydroxylase, 2B): <20%

## COC(=O)[C@H](c1ccccc1)[C@H]1CCCCN1 [dtmp, d-threo-methylphenidate]
Mouse liver
  toxicity in the mouse liver: less toxicity in the mouse liver than racemic methylphenidate
P450 Isozyme 2D6
  % Inhibition of Enzyme Activity (Bufuralol hydroxylase, 2D6): 64%
P450 Isozyme 2C19
  % Inhibition of Enzyme Activity (Mephenytoin hydroxylase, 2C19): 31%
P450 Isozyme 2B
  % Inhibition of Enzyme Activity (Lauric acid 11-hydroxylase, 2B): <20%

## NCC(CC(=O)O)c1ccc(Cl)cc1 (stereo not shown) [Baclofen]
rats
  block of methylphenidate-enhanced activity and stereotypics: uniform block

Reference: US7267949B2, “Composition comprising methylphenidate and another drug” (Celltech Pharma Europe Limited, priority 1995, dated 2007)
